Here are results for six compounds from US20210330713A1, “HUMAN HEPATOCYTES AND USES THEREOF” (ACCELERATED BIOSCIENCES CORP., priority 2014, published 2021).

For data set [1] the following is noted: cited from earlier work.
The target in the next data set is T1, FGF receptor (FGFR) (Homo sapiens, UniProt P11362).
T1 construct: endogenous in cells; host or cells: hTS cells (human trophoblast stem cells)
Nature of the data set: FGFR inhibitor block of bFGF-induced PI3K by immunoblotting. It is filed as cell-based. As to conditions: hTS cells, bFGF 10 ng/ml. Here is the method: (§1) For immunoblotting assay, cells were harvested into RIPA lysis solution (Millipore, Billerica, Mass.) supplemented with protease and phosphatase inhibitors (Roche). After electrophoresis of 30 μg lysates on polyacrylamide gels, electroblotting onto PDVF membranes (Millipore) was performed. After blocked by 5% non-fat milk in PBS at room temperature (1 hr), target protein was detected by using primary antibody. All membranes were incubated with chemiluminescent (Millipore) and imaging was captured by the ChemiDoc XRS system (Bio-RAD). Data were analyzed by AlphaEaseFC (version 4.0.0) system. For IP assay, Cell lysates of bFGF-treated hTS cells were collected. By incubation with protein G-agarose (Millipore) for 30 min, total protein (100 μg) was treated with specific primary antibody overnight listed in Table 1. After treating with protein G-agarose beads (2 hr), sample was washed three times with RIPA lysis buffer (Millipore), following by adding with protein loading dye and boiled for 5 min. […]
(§2) For immunoblotting assay, cells were harvested into RIPA lysis solution (Millipore, Billerica, Mass.) supplemented with protease and phosphatase inhibitors (Roche). […] After blocked by 5% non-fat milk in PBS at room temperature (1 hr), target protein was detected by using primary antibody. […] Data were analyzed by AlphaEaseFC (version 4.0.0) system. […]
(In general: A western blot detects proteins with antibodies after separation by electrophoresis.)

For the next data set, the system named is CYP7A1. As to conditions: hypercholesterolemic hamsters; cited from earlier work.
The test system of data set [2] is hTS cells. Nature of the data set: Hepatocytic differentiation of hTS cells after DE stage. As to conditions: dexamethasone 0.1 μM and oncostatin M 10 ng/ml added at 8 hr of bFGF induction, 4 days.
Another data set deals with CYP3A4. Nature of the data set: Functional cytochrome p450 assay by qPCR, CYP3A4. As to conditions: hepatocyte-like cells, rifampicin 25 μM + itraconazole 25 μM, 24 hr. On the technique in general: In qPCR the cycle at which signal appears reflects the starting amount.
Data set [3] deals with PI3K/AKT/CREB1 signaling pathway. Nature of the data set: bFGF-induced PI3K/AKT/CREB1 signaling by immunoblotting. In kind it is cell-based, human. As to conditions: bFGF 10 ng/ml, 4 hr induction, hTS cells. Here is the method: as §1, §2
In a further data set the test system is miR-124a. Nature of the data set: miR-124a expression in hTS cells by qPCR. The note with it: bFGF induction, DE stage. It is filed as cell-based, human. An excerpt:
U6 snRNA (RNU6B; Applied Biosystems) served as an endogenous control.

In data set [4] the test system is hTS cells. Nature of the data set: bFGF induction of DE differentiation in hTS cells, DE-associated markers over time. It is filed as cell-based, human. The note with it: bFGF 10 ng/ml. Here is the method: For immunoblotting assay, cells were harvested into RIPA lysis solution (Millipore, Billerica, Mass.) supplemented with protease and phosphatase inhibitors (Roche). After electrophoresis of 30 μg lysates on polyacrylamide gels, electroblotting onto PDVF membranes (Millipore) was performed. After blocked by 5% non-fat milk in PBS at room temperature (1 hr), target protein was detected by using primary antibody. All membranes were incubated with chemiluminescent (Millipore) and imaging was captured by the ChemiDoc XRS system (Bio-RAD). Data were analyzed by AlphaEaseFC (version 4.0.0) system. For IP assay, Cell lysates of bFGF-treated hTS cells were collected. By incubation with protein G-agarose (Millipore) for 30 min, total protein (100 μg) was treated with specific primary antibody overnight listed in Table 1. After treating with protein G-agarose beads (2 hr), sample was washed three times with RIPA lysis buffer (Millipore), following by adding with protein loading dye and boiled for 5 min. The sample was resolved by 8% SDS-PAGE and subjected to immunoblotting analysis.
(§3) Slides with cell culture was fixed for 30 min at room temperature in 95% (v/v) ethanol, washed three times in PBS and incubated with blocking buffer PBS containing 0.1% (wt/v) Triton X-100 (Sigma) and 5% (v/v) normal donkey serum (Millipore) for 60 min. Primary and secondary antibodies were diluted in blocking buffer. Primary antibody was incubated. After incubation with specific primary antibody in PBS at 4° C. (24 hr) or room temperature (2 hr), appropriate fluorescein isothiocyante (FITC, Invitrogen) or ALEXA FLUOR® 488, 594, and 647 (Invitrogen) or Dylight 488 and 594 (BioLegend) conjugated secondary antibody was added at room temperature (1 hr). After DAPI staining of nucleus (5 min), incubation with secondary antibody (1 hr) at room temperature, and washes, sample was mounted with 50% glycerol. Images were captured by confocal laser scanning microscopy (LSM700; Zeiss Z1 or Olympus FluoView 1000 confocal laser scanning microscope) or TissueFAXS system (TissueQnostics GmbH, Vienna, Austria). Data were analyzed by TissueQuest software.
This study was approved by the Institutional Review Board on Human Subjects Research and Ethics Committees (KMUHIRB-20140071). […] For DE differentiation, cells were carried out by a conditioned a-MEM media containing 10% FBS, 2-mercaptoethanol (1 mM), nicotinamide (10 mM), and bFGF (10 ng/ml) for 8 hr, according to the empirical studies (data not shown). […] Cells were harvested at 4-7 days for assay as indicated. Determination of stage-specific differentiation of lineages depends on the hepatic cell-associated markers in liver development.
as §3, with “Briefly, slides” for “Slides”, “DYLIGHT®” for “Dylight”, “glycerol.” for “glycerol. Images were captured by confocal laser scanning microscopy (LSM700; Zeiss Z1 or Olympus FluoView 1000 confocal laser scanning microscope) or TissueFAXS system (TissueQnostics GmbH, Vienna, Austria). Data were analyzed by TissueQuest software.”

Entries after “also recorded” stand apart in the source; their conditions may differ.

T1 sequence (P11362 22-822): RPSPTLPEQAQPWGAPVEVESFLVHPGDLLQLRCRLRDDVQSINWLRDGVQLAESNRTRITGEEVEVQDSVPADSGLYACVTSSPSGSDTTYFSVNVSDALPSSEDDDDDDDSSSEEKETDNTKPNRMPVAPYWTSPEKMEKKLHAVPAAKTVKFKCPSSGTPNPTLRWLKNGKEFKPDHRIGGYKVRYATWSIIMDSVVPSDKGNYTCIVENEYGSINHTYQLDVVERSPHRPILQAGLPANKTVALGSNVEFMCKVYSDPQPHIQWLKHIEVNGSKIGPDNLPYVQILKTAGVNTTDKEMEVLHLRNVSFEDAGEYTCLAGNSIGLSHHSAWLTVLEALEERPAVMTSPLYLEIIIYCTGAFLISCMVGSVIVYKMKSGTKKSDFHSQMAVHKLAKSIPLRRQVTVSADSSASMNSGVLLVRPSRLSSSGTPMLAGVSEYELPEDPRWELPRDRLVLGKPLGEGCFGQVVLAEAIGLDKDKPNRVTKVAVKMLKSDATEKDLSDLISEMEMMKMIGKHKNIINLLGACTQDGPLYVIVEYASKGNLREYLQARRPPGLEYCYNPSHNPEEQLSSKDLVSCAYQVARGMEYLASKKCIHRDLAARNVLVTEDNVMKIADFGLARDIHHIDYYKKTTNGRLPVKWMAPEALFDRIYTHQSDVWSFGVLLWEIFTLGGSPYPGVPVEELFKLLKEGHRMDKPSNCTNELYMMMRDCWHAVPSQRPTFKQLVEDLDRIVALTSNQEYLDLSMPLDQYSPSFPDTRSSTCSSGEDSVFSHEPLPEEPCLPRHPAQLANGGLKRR

`ClC(Cl)(Cl)Cl` [CCl4, carbon tetrachloride]: the half-live in blood in data set [1] was 24 h.

In the case of `COc1cc(OC)cc(-c2cc3cnc(N)nc3nc2NC(=O)NC(C)(C)C)c1` [PD166866], the “bFGF-induced activation of PI3K” value at FGF receptor (FGFR) is given as “block”.

As to `CC(=O)c1c(O)cc(O)cc1O` [THA], in the data set with CYP7A1, the “CYP7A1 activity and mRNA expression” value is “promotes both CYP7A1 activity and mRNA expression”; the “plasma cholesterol and triglyceride” value is “reduce both plasma cholesterol and triglyceride”.

Turning to `C[C@@H]1C[C@H]2[C@@H]3CCC4=CC(=O)C=C[C@]4(C)[C@@]3(F)[C@@H](O)C[C@]2(C)[C@@]1(O)C(=O)CO` [dexamethasone], the “differentiation to hepatocyte-like cells expressing hepatic markers” value in the data set with hTS cells [2] is given as “resulted in the differentiation of hepatocyte-like cells”.

In the case of `CCC(C)n1ncn(-c2ccc(N3CCN(c4ccc(OCC5COC(Cn6cncn6)(c6ccc(Cl)cc6Cl)O5)cc4)CC3)cc2)c1=O` (stereo not shown) [itraconazole], in the data set on CYP3A4, the “inducer-induced CYP3A4 mRNA in response to inhibitor” value is on record as “reduced”.

Take “bFGF: basic fibroblast growth factor, used at 10 ng/ml to induce DE differentiation of hTS cells”: the “activation of the PI3K/AKT1/CREB1 signaling pathway” value in data set [3] is recorded as “induces activation”. Moreover, the “time of peak miR-124a expression” value with miR-124a was determined as 4 h. In the data set with hTS cells [4] (2 hr, immunoblotting), the “SOX17 levels at peak” value was 1.5 fold. The “intensity of Mixl1, nadir lower than the native one” value in the data set on hTS cells [4] (4 hr, TissueFAX analysis) is reported as around 50%. Also, the “MIXL1 levels, nadir lower than the native one” value with hTS cells [4] (4 hr, immunoblotting) is given as around 50%. In addition, the DE formation entry with hTS cells [4] (8 hr induction) is on record as “efficiently yield DE; also recorded: rapidly differentiate hTS cells to DE stage”. Moreover, in the data set with hTS cells [4] (8 hr, immunoblotting), the FOXA2 highest levels was 3 fold.
